Measurements published in article PMC5218480 (PLoS ONE, 2017).

Test system: MV-4-11 cells
Experiment: Gene expression microarray analysis (Affymetrix PrimeView) and GSEA
Format: cell-based, human
Parameters: RFU PODN (11730768_x_at) / Fold change /veh PODN (11730768_x_at) / RFU LINC00158 (11744669_a_at) / Fold change /veh LINC00158 (11744669_a_at) / RFU DUSP10 (11751237_a_at) / Fold change /veh DUSP10 (11751237_a_at) / RFU ID3 (11757404_x_at) / Fold change /veh ID3 (11757404_x_at) / RFU PLEKHG5 (11737974_s_at) / Fold change /veh PLEKHG5 (11737974_s_at) / RFU LRRC4B (11730491_at) / Fold change /veh LRRC4B (11730491_at) / RFU GIMAP4 (11747438_a_at) / Fold change /veh GIMAP4 (11747438_a_at) / RFU KRT8 (11758183_x_at) / Fold change /veh KRT8 (11758183_x_at) / RFU CNN1 (11734310_a_at) / Fold change /veh CNN1 (11734310_a_at) / RFU VPS37D (11726825_at) / Fold change /veh VPS37D (11726825_at) / RFU C10orf10 (11716522_x_at) / Fold change /veh C10orf10 (11716522_x_at) / RFU KIR2DL2 /// KIR2DL4 /// KIR2DL5A /// KIR2DL5B /// KIR2DS1 /// KIR2DS2 /// KIR2DS3 /// KIR2DS4 /// KIR3DL3 /// KIR3DL3 /// KIR3DS1 (11738374_at) / Fold change /veh KIR2DL2 /// KIR2DL4 /// KIR2DL5A /// KIR2DL5B /// KIR2DS1 /// KIR2DS2 /// KIR2DS3 /// KIR2DS4 /// KIR3DL3 /// KIR3DL3 /// KIR3DS1 (11738374_at) / RFU C1QL1 (11718748_at) / Fold change /veh C1QL1 (11718748_at) / RFU TMPRSS4 (11747572_a_at) / Fold change /veh TMPRSS4 (11747572_a_at) / RFU HAMP (11756126_x_at) / Fold change /veh HAMP (11756126_x_at) / RFU RNFT2 (11725882_a_at) / Fold change /veh RNFT2 (11725882_a_at) / RFU NR4A2 (11747474_a_at) / Fold change /veh NR4A2 (11747474_a_at) / RFU ABCC12 (11746883_a_at) / Fold change /veh ABCC12 (11746883_a_at) / RFU TMEM136 (11760407_x_at) / Fold change /veh TMEM136 (11760407_x_at) / RFU CLDN22 /// WWC2 (11732394_at) / Fold change /veh CLDN22 /// WWC2 (11732394_at) / RFU HLA-DPB1 (11760878_x_at) / Fold change /veh HLA-DPB1 (11760878_x_at) / RFU SPINT1 (11716480_a_at) / Fold change /veh SPINT1 (11716480_a_at) / RFU GAP43 (11754022_s_at) / Fold change /veh GAP43 (11754022_s_at) / RFU A4GNT (11735810_at) / Fold change /veh A4GNT (11735810_at) / RFU PRB3 (11715151_x_at) / Fold change /veh PRB3 (11715151_x_at) / RFU TUBB4B (11761932_at) / Fold change /veh TUBB4B (11761932_at) / RFU CAPN14 (11732068_a_at) / Fold change /veh CAPN14 (11732068_a_at) / RFU TMCC2 (11721928_a_at) / Fold change /veh TMCC2 (11721928_a_at) / RFU IRGQ (11745062_a_at) / Fold change /veh IRGQ (11745062_a_at) / RFU FAM174B (11720279_a_at) / Fold change /veh FAM174B (11720279_a_at) / RFU TMPRSS4 (11748680_a_at) / Fold change /veh TMPRSS4 (11748680_a_at) / RFU FAM212B (11763350_a_at) / Fold change /veh FAM212B (11763350_a_at) / RFU PLEKHG5 (11743358_a_at) / Fold change /veh PLEKHG5 (11743358_a_at) / RFU ZSCAN30 (11745921_a_at) / Fold change /veh ZSCAN30 (11745921_a_at) / RFU CMKLR1 (11741424_a_at) / Fold change /veh CMKLR1 (11741424_a_at) / RFU LOC101060620 /// MAPK8IP1 (11723275_at) / Fold change /veh LOC101060620 /// MAPK8IP1 (11723275_at) / RFU SPTSSB (11747773_x_at) / Fold change /veh SPTSSB (11747773_x_at) / RFU PRSS12 (11739890_at) / Fold change /veh PRSS12 (11739890_at) / RFU BIN1 (11741810_x_at) / Fold change /veh BIN1 (11741810_x_at) / RFU WNT11 (11732464_a_at) / Fold change /veh WNT11 (11732464_a_at) / RFU C10orf10 (11716521_a_at) / Fold change /veh C10orf10 (11716521_a_at) / RFU C5orf56 (11738089_at) / Fold change /veh C5orf56 (11738089_at) / RFU CYB561 (11721691_x_at) / Fold change /veh CYB561 (11721691_x_at) / RFU ANKRD19P (11752326_a_at) / Fold change /veh ANKRD19P (11752326_a_at) / RFU OR2T12 /// OR2T33 /// OR2T8 (11738714_s_at) / Fold change /veh OR2T12 /// OR2T33 /// OR2T8 (11738714_s_at) / RFU VCAN (11748164_a_at) / Fold change /veh VCAN (11748164_a_at) / RFU JSRP1 (11732532_at) / Fold change /veh JSRP1 (11732532_at) / RFU KRTAP10-11 (11738290_x_at) / Fold change /veh KRTAP10-11 (11738290_x_at) / RFU MYO3A (11730013_a_at) / Fold change /veh MYO3A (11730013_a_at) / RFU EBF3 (11725865_a_at) / Fold change /veh EBF3 (11725865_a_at) / RFU CAMK2N1 (11719241_x_at) / Fold change /veh CAMK2N1 (11719241_x_at) / RFU C5orf56 (11738088_a_at) / Fold change /veh C5orf56 (11738088_a_at) / RFU OLFML3 (11715873_a_at) / Fold change /veh OLFML3 (11715873_a_at) / RFU LOC100653217 /// NTM (11731650_a_at) / Fold change /veh LOC100653217 /// NTM (11731650_a_at) / RFU MAPK11 (11762145_a_at) / Fold change /veh MAPK11 (11762145_a_at) / RFU FIZ1 (11724087_x_at) / Fold change /veh FIZ1 (11724087_x_at) / RFU OASL (11726364_x_at) / Fold change /veh OASL (11726364_x_at) / RFU SOX15 (11748057_x_at) / Fold change /veh SOX15 (11748057_x_at) / RFU CD79A (11719716_a_at) / Fold change /veh CD79A (11719716_a_at) / RFU HIST1H1D (11736915_at) / Fold change /veh HIST1H1D (11736915_at) / RFU CASKIN2 (11723855_a_at) / Fold change /veh CASKIN2 (11723855_a_at) / RFU LOC730098 (11760151_x_at) / Fold change /veh LOC730098 (11760151_x_at) / RFU OR4N2 (11742367_at) / Fold change /veh OR4N2 (11742367_at) / RFU PRRT2 (11749266_a_at) / Fold change /veh PRRT2 (11749266_a_at) / RFU SNX32 (11753110_a_at) / Fold change /veh SNX32 (11753110_a_at) / RFU CDHR5 (11726645_a_at) / Fold change /veh CDHR5 (11726645_a_at) / RFU RCAN1 (11760418_a_at) / Fold change /veh RCAN1 (11760418_a_at) / RFU FAM167A (11723789_a_at) / Fold change /veh FAM167A (11723789_a_at) / RFU FAM26E (11764081_at) / Fold change /veh FAM26E (11764081_at) / RFU ISYNA1 (11749810_s_at) / Fold change /veh ISYNA1 (11749810_s_at) / RFU ACY1 (11761880_at) / Fold change /veh ACY1 (11761880_at) / RFU 11764098_at / Fold change /veh 11764098_at / RFU SAMD14 (11745864_x_at) / Fold change /veh SAMD14 (11745864_x_at) / RFU NPB (11741838_a_at) / Fold change /veh NPB (11741838_a_at) / RFU TMPRSS6 (11731388_a_at) / Fold change /veh TMPRSS6 (11731388_a_at) / RFU KRTAP10-2 (11738614_at) / Fold change /veh KRTAP10-2 (11738614_at) / RFU ARHGAP8 /// PRR5-ARHGAP8 (11727945_x_at) / Fold change /veh ARHGAP8 /// PRR5-ARHGAP8 (11727945_x_at) / RFU KRTAP5-7 /// NADSYN1 (11734609_at) / Fold change /veh KRTAP5-7 /// NADSYN1 (11734609_at) / RFU RASL12 (11751679_a_at) / Fold change /veh RASL12 (11751679_a_at) / RFU CDKN2B (11736163_a_at) / Fold change /veh CDKN2B (11736163_a_at) / RFU PRF1 (11729649_at) / Fold change /veh PRF1 (11729649_at) / RFU, ZNF638 /// ZNF638-IT1 / Fold change vs veh, ZNF638 /// ZNF638-IT1 / RFU, PANK3 / Fold change vs veh, PANK3 / RFU, SH3YL1 / Fold change vs veh, SH3YL1 / RFU, ZEB2 / Fold change vs veh, ZEB2 / RFU, NRIP1 / Fold change vs veh, NRIP1 / RFU, PTTG1IP / Fold change vs veh, PTTG1IP / RFU, CAPN2 / Fold change vs veh, CAPN2 / RFU, MED14 / Fold change vs veh, MED14 / RFU, SNORA58 / Fold change vs veh, SNORA58 / RFU, C1orf63 / Fold change vs veh, C1orf63 / RFU, LRRFIP1 / Fold change vs veh, LRRFIP1 / RFU, NDUFAF7 / Fold change vs veh, NDUFAF7 / RFU, SLC12A2 / Fold change vs veh, SLC12A2 / RFU, IBTK / Fold change vs veh, IBTK / RFU, ESF1 / Fold change vs veh, ESF1 / Fold change vs veh, TMEM50B / RFU, TAOK1 / Fold change vs veh, TAOK1 / RFU, ACBD3 / Fold change vs veh, ACBD3 / RFU, TMA16 / Fold change vs veh, TMA16 / RFU, RWDD3 / Fold change vs veh, RWDD3 / RFU, BCAT1 / Fold change vs veh, BCAT1 / RFU, EDEM3 / Fold change vs veh, EDEM3 / RFU, TMEM33 / Fold change vs veh, TMEM33 / RFU, WDR75 / Fold change vs veh, WDR75 / RFU, AHCTF1 / Fold change vs veh, AHCTF1 / RFU, TFRC / Fold change vs veh, TFRC / RFU, ZDHHC17 / Fold change vs veh, ZDHHC17 / RFU, NOM1 / Fold change vs veh, NOM1 / RFU, ARL8B / Fold change vs veh, ARL8B / RFU, ZBTB11 / Fold change vs veh, ZBTB11 / RFU, TAMM41 / Fold change vs veh, TAMM41 / RFU, KIAA1704 /// LOC100996395 / Fold change vs veh, KIAA1704 /// LOC100996395 / RFU, ING1 / Fold change vs veh, ING1 / RFU, TRMT61B / Fold change vs veh, TRMT61B / RFU, FUBP3 / Fold change vs veh, FUBP3 / RFU, TP53 / Fold change vs veh, TP53 / RFU, TNKS2 / Fold change vs veh, TNKS2 / RFU, ZFP14 / Fold change vs veh, ZFP14 / RFU, ACTR2 / Fold change vs veh, ACTR2 / RFU, PPP3R1 / Fold change vs veh, PPP3R1 / RFU, PIK3R1 / Fold change vs veh, PIK3R1 / RFU, HNRNPA1 / Fold change vs veh, HNRNPA1 / RFU, RNF170 / Fold change vs veh, RNF170 / RFU, ZNF28 / Fold change vs veh, ZNF28 / RFU, RNGTT / Fold change vs veh, RNGTT / RFU, OGT / Fold change vs veh, OGT / RFU, BRD1 / Fold change vs veh, BRD1 / RFU, MARS / Fold change vs veh, MARS / RFU, ZNF655 / Fold change vs veh, ZNF655 / RFU, FAHD1 / Fold change vs veh, FAHD1 / RFU, BDP1 / Fold change vs veh, BDP1 / RFU, LRRCC1 / Fold change vs veh, LRRCC1 / RFU, ARID1A / Fold change vs veh, ARID1A / RFU, ZNF146 / Fold change vs veh, ZNF146 / RFU, ZNF330 / Fold change vs veh, ZNF330 / RFU, GPN3 / Fold change vs veh, GPN3 / RFU, C9orf123 / Fold change vs veh, C9orf123 / RFU, N4BP2L2 / Fold change vs veh, N4BP2L2 / RFU, ARFIP1 / Fold change vs veh, ARFIP1 / RFU, FAM179B / Fold change vs veh, FAM179B / RFU, BCL10 / Fold change vs veh, BCL10 / RFU, UHRF1BP1L / Fold change vs veh, UHRF1BP1L / RFU, BET1 / Fold change vs veh, BET1 / RFU, CNOT2 / Fold change vs veh, CNOT2 / RFU, ZNF268 / Fold change vs veh, ZNF268 / Fold change vs veh, ZNF507 / RFU, DGCR2 / Fold change vs veh, DGCR2 / RFU, WDSUB1 / Fold change vs veh, WDSUB1 / Fold change vs veh, HSP90B1 /// MIR3652 / RFU, ADSS / Fold change vs veh, ADSS / RFU, GK / Fold change vs veh, GK / RFU, ZNF148 / Fold change vs veh, ZNF148 / RFU, TAF9 / Fold change vs veh, TAF9 / RFU, SLC1A5 / Fold change vs veh, SLC1A5 / RFU, SLMO2 / Fold change vs veh, SLMO2 / RFU, ABCC4 / Fold change vs veh, ABCC4 / RFU, LOC101060439 /// RAP1B / Fold change vs veh, LOC101060439 /// RAP1B / RFU, RFX7 / Fold change vs veh, RFX7 / RFU, GTPBP10 / Fold change vs veh, GTPBP10 / RFU, CNEP1R1 / Fold change vs veh, CNEP1R1 / RFU, BIVM-ERCC5 /// ERCC5 / Fold change vs veh, BIVM-ERCC5 /// ERCC5 / RFU, ILF3 / Fold change vs veh, ILF3 / RFU 11762660_at / Fold change /veh 11762660_at / RFU VCAN (11757783_s_at) / Fold change /veh VCAN (11757783_s_at) / RFU DDX43 (11728927_at) / Fold change /veh DDX43 (11728927_at) / RFU KRT8 (11758188_x_at) / Fold change /veh KRT8 (11758188_x_at) / RFU NKD1 (11759106_at) / Fold change /veh NKD1 (11759106_at) / RFU SRD5A1 (11742802_a_at) / Fold change /veh SRD5A1 (11742802_a_at) / RFU TPSAB1 /// TPSB2 (11721975_s_at) / Fold change /veh TPSAB1 /// TPSB2 (11721975_s_at) / RFU GSTM3 (11746129_a_at) / Fold change /veh GSTM3 (11746129_a_at) / RFU IL23R (11737362_x_at) / Fold change /veh IL23R (11737362_x_at) / RFU TMEM51 (11727254_a_at) / Fold change /veh TMEM51 (11727254_a_at) / RFU PIWIL2 (11732686_x_at) / Fold change /veh PIWIL2 (11732686_x_at) / RFU ORM1 (11744905_x_at) / Fold change /veh ORM1 (11744905_x_at) / RFU CCDC152 (11743942_at) / Fold change /veh CCDC152 (11743942_at) / RFU ECM1 (11717891_a_at) / Fold change /veh ECM1 (11717891_a_at) / RFU IL23R (11748794_a_at) / Fold change /veh IL23R (11748794_a_at) / RFU TNFAIP8L3 (11732012_x_at) / Fold change /veh TNFAIP8L3 (11732012_x_at) / RFU MBOAT4 (11741988_at) / Fold change /veh MBOAT4 (11741988_at) / RFU 11764193_at / Fold change /veh 11764193_at / RFU TMEM53 (11763286_at) / Fold change /veh TMEM53 (11763286_at) / RFU MAGEB2 (11727129_at) / Fold change /veh MAGEB2 (11727129_at) / RFU TMEM200A (11744735_a_at) / Fold change /veh TMEM200A (11744735_a_at) / RFU CCDC152 (11751479_a_at) / Fold change /veh CCDC152 (11751479_a_at) / RFU FAM211A (11726209_a_at) / Fold change /veh FAM211A (11726209_a_at) / RFU RGS16 (11746705_a_at) / Fold change /veh RGS16 (11746705_a_at) / RFU VCAN (11755009_s_at) / Fold change /veh VCAN (11755009_s_at) / RFU RHOB (11743442_s_at) / Fold change /veh RHOB (11743442_s_at) / RFU RGS16 (11720943_a_at) / Fold change /veh RGS16 (11720943_a_at) / RFU RGS16 (11720944_at) / Fold change /veh RGS16 (11720944_at) / RFU, VPS4B / Fold change vs veh, VPS4B / RFU, CREB1 / Fold change vs veh, CREB1 / RFU, DNAJC13 / Fold change vs veh, DNAJC13 / RFU, GNAQ / Fold change vs veh, GNAQ / RFU, CDK5R1 / Fold change vs veh, CDK5R1 / RFU, ZRANB3 / Fold change vs veh, ZRANB3 / RFU, CUL4A / Fold change vs veh, CUL4A / RFU, CCNY / Fold change vs veh, CCNY / RFU, UFL1 / Fold change vs veh, UFL1 / RFU, COG3 / Fold change vs veh, COG3 / RFU, DIAPH2 / Fold change vs veh, DIAPH2 / RFU, SKA2 / Fold change vs veh, SKA2 / RFU, AFF3 / Fold change vs veh, AFF3 / RFU, LMF1 / Fold change vs veh, LMF1 / RFU, IPO11 / Fold change vs veh, IPO11 / RFU, DFFB / Fold change vs veh, DFFB / RFU, FOXP1 / Fold change vs veh, FOXP1 / RFU, CARD8 / Fold change vs veh, CARD8 / RFU, STRN3 / Fold change vs veh, STRN3 / RFU, ADK / Fold change vs veh, ADK / RFU, RASSF2 / Fold change vs veh, RASSF2 / RFU, WIPF1 / Fold change vs veh, WIPF1 / RFU, LARP1B / Fold change vs veh, LARP1B / RFU, RASA1 / Fold change vs veh, RASA1 / RFU, RB1 / Fold change vs veh, RB1 / RFU, PPFIA1 / Fold change vs veh, PPFIA1 / RFU, MAT2A / Fold change vs veh, MAT2A / RFU, CCT5 / Fold change vs veh, CCT5 / RFU, WDR92 / Fold change vs veh, WDR92 / RFU, CUX1 / Fold change vs veh, CUX1 / RFU, TTC7A / Fold change vs veh, TTC7A / RFU, TMEM135 / Fold change vs veh, TMEM135 / RFU, DEPTOR / Fold change vs veh, DEPTOR / RFU, CPM / Fold change vs veh, CPM / RFU, DNAJB6 / Fold change vs veh, DNAJB6 / RFU, CACNA2D3 / Fold change vs veh, CACNA2D3 / RFU, DTX4 / Fold change vs veh, DTX4 / RFU, TFCP2 / Fold change vs veh, TFCP2 / RFU, GMCL1 /// GMCL1P1 / Fold change vs veh, GMCL1 /// GMCL1P1 / RFU, AEBP2 / Fold change vs veh, AEBP2 / RFU, SNHG1 /// SNORD22 /// SNORD25 /// SNORD26 /// SNORD27 /// SNORD28 /// SNORD29 /// SNORD31 / Fold change vs veh, SNHG1 /// SNORD22 /// SNORD25 /// SNORD26 /// SNORD27 /// SNORD28 /// SNORD29 /// SNORD31 / Fold change (Aza/veh), C12orf56 (ProbeSet 11735607_a_at) / Fold change (ACY-1035/veh), C12orf56 (ProbeSet 11735607_a_at) / Fold change (Aza/veh), FGFR1OP (ProbeSet 11751329_s_at) / Fold change (ACY-1035/veh), FGFR1OP (ProbeSet 11751329_s_at) / Fold change (Aza/veh), VPS36 (ProbeSet 11739960_a_at) / Fold change (ACY-1035/veh), VPS36 (ProbeSet 11739960_a_at) / RFU SYPL1 (11715823_x_at) / Fold change /veh SYPL1 (11715823_x_at) / RFU IGFBP7 (11715501_s_at) / Fold change /veh IGFBP7 (11715501_s_at) / RFU REEP3 (11722064_at) / Fold change /veh REEP3 (11722064_at) / RFU IGLL1 (11728026_x_at) / Fold change /veh IGLL1 (11728026_x_at): dose or concentration left out as unconfirmed
Details: MV-4-11 cells, 48 hours

In the case of `Nc1ccc(-c2cccs2)cc1NC(=O)c1ccc2c(c1)cc(C1CC1)n2CCN1CCOCC1` [ACY-1035], the “RFU C1QL1 (11718748_at)” value was 611.11 RFU.
